In one data set the target is T1, fowlpox virus resolvase (Fowlpox virus, UniProt Q9J546).
T1 sequence (Q9J546 1-156): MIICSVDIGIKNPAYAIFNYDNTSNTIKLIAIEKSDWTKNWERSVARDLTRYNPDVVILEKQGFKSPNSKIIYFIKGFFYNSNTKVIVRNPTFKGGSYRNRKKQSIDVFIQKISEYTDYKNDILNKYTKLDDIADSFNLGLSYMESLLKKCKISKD
Briefly: Fluorescence polarization (FP) assay of bulged DNA substrate cleavage by fowlpox resolvase. The data set is classed as biochemical. Particulars: for activity in the FP assay: compared with compound 1 or with the N-hydroxy parent; for IC50: off-center bulge substrate 2 nM, 10 nM fowlpox resolvase, 37° C., 1 hr.

The subject of a further data set is vaccinia virus WR. In words: microbe, parasite or virus in culture. The data set is classed as cell-based. To be noted: for IC50: Orthopoxvirus vaccinia.
Data set [1] is described as follows: Cytotoxicity, CellTiter-Glo Luminescent Cell Viability Assay. Particulars: for Cytotoxicity, LD50: CellTiter-Glo; for cytotoxicity: compared with compound 1.
The next data set deals with fowlpox resolvase. In words: Holliday junction substrate cleavage by fowlpox resolvase, gel based assay. The data set is classed as biochemical, fowlpox virus. To be noted: authentic Holliday junction substrates in vitro.
The target of the next data set is variola topoisomerase (Variola virus, UniProt P32989). It counts as biochemical.
Sequence of variola topoisomerase (P32989 whole entry, looked up): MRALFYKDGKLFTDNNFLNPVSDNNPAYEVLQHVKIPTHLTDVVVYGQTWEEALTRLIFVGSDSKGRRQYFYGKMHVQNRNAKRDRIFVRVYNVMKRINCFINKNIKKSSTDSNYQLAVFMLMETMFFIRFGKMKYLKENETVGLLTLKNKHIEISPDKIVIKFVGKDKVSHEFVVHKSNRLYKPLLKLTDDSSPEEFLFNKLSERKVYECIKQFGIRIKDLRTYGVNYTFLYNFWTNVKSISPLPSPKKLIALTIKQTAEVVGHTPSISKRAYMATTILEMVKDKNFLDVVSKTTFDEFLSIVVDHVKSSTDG
Where [2] appears, read: 48 h, read-out: Antiviral assay, IC50.

Structures are written as SMILES. “Also recorded” adds a separate entry of the source. Read-outs that look alike come from different tables or passages of the source. Where only a bound is given, the exact number is not on record here.

For `CCOC(=O)c1c(O)c2cc(-c3cccc(OC)n3)cnc2n(OCc2ccccc2)c1=O` [Compound 8, Ethyl 1-(benzyloxy)-4-hydroxy-6-(6-methoxypyridin-2-yl)-2-oxo-1,2-dihydro-1,8-naphthyridine-3-carboxylate], on fowlpox virus resolvase, the “activity in the FP assay” value is reported as “abolished activity” and the half-maximal inhibitory concentration (IC50) is above 250 µM. In the data set “Log P (hydrophobicity)”, the “Log P” value is 3.54. Also, the IC50 in the data set with vaccinia virus WR (setting [2]) was above 350 µM.
In the case of `O=c1c(-c2ccccc2)c(O)c2cc(CCc3ccc(C(F)(F)F)cc3)cnc2n1O` [Compound 2, 1,4-Dihydroxy-3-phenyl-6-(4-(trifluoromethyl)phenethyl)-1,8-naphthyridin-2(1H)-one], on fowlpox virus resolvase, the “activity in the FP assay” value is reported as “slightly less potent” and half-maximal inhibition (IC50) was put at 3 ± 2 µM. Moreover, the “Log P” value in “Log P (hydrophobicity)” was 4.94. The IC50 with vaccinia virus WR (setting [2]) was found to be 4 ± 1 µM. For the same compound, in data set [1], the “Cytotoxicity, LD50” value was determined as 15 ± 12 µM and the “cytotoxicity” value was “no reduction in cytotoxicity”.
For the compound `COc1ccc(CCc2cnc3c(c2)c(O)c(-c2ccccc2)c(=O)n3O)cc1` [Compound 4, 1,4-Dihydroxy-6-(4-methoxyphenethyl)-3-phenyl-1,8-naphthyridin-2(1H)-one], the “activity in the FP assay” value on fowlpox virus resolvase is on record as “slightly less potent”. Moreover, the IC50 in the data set on vaccinia virus WR (setting [2]) was determined as 11 ± 1 µM. Further, in data set [1], the “Cytotoxicity, LD50” value amounted to 10 ± 1 µM and the “cytotoxicity” value is “no reduction in cytotoxicity”.
In the case of `O=c1c(-c2ccccc2)c(O)c2cc(-c3cccc(-c4ccccc4)c3)cnc2n1O` [Compound 1, 6-(Biphenyl-3-yl)-1,4-dihydroxy-3-phenyl-1,8-naphthyridin-2(1/H)-one], the “inhibition of Holliday junction cleavage” value in the data set with fowlpox resolvase is “effective inhibition”. For the same compound, the half-inhibitory concentration (IC50) in the data set with vaccinia virus WR (setting [2]) stood at 4 ± 1 µM; with vaccinia virus WR (read-out: antiviral assays IC50), 4 µM. Moreover, the “Cytotoxicity, LD50” value in data set [1] amounted to 13 ± 4 µM.
As to `CCOC(=O)c1c(O)c2cc(/C=C/c3ccc(C(F)(F)F)cc3)cnc2n(OCc2ccccc2)c1=O` [Compound 6, (E)-Ethyl 1-(benzyloxy)-4-hydroxy-2-oxo-6-(4-(trifluoromethyl)styryl)-1,2-dihydro-1,8-naphthyridine-3-carboxylate], on fowlpox virus resolvase, the “activity in the FP assay” value was “abolished activity” and the 50% inhibitory concentration (IC50) was above 250 µM. The “Log P” value in “Log P (hydrophobicity)” is listed as 5.50. For the same compound, the half-maximal inhibitory concentration (IC50) in the data set on vaccinia virus WR (setting [2]) was above 350 µM.
`CCOC(=O)c1c(O)c2cc(CCc3ccc(C(F)(F)F)cc3)cnc2n(O)c1=O` [Compound 5, Ethyl 1,4-dihydroxy-2-oxo-6-(4-(trifluoromethyl)phenethyl)-1,2-dihydro-1,8-naphthyridine-3-carboxylate]: the concentration for half-maximal inhibition (IC50) turned out to be 14 ± 7 µM against fowlpox virus resolvase and 12 ± 1 µM in the data set on vaccinia virus WR (setting [2]). Further, the log partition coefficient (Log P) in “Log P (hydrophobicity)” is 3.60. Further, the “Cytotoxicity, LD50” value in data set [1] stood at 20 ± 12 µM.
In the case of `CCOC(=O)c1c(O)c2cc(-c3cccc(OC)n3)cnc2n(O)c1=O` [Compound 7, Ethyl 1,4-dihydroxy-6-(6-methoxypyridin-2yl)-2-oxo-1,2-dihydro-1,8-naphthyridine-3-carboxylate], on fowlpox virus resolvase, the “activity in the FP assay” value is on record as “slight increase over compound 1” and the 50% inhibitory concentration (IC50) came out at 11 ± 2 µM. In the data set with fowlpox resolvase, the “inhibition of Holliday junction cleavage” value is listed as “inhibition of cleavage”. Besides, at variola topoisomerase, the “inhibition of variola topoisomerase activity” value is “no Inhibitory activity; also recorded: lack of inhibition”. Also, the “Log P” value in the data set “Log P (hydrophobicity)” is 1.43. Also, the “antiviral activity” value with vaccinia virus WR is given as “slightly increased; also recorded: showed antiviral activity at concentrations below cytotoxic levels”. Moreover, in the data set on vaccinia virus WR (setting [2]), the IC50 came to 25 ± 16 µM. For the same compound, in data set [1], the “Cytotoxicity, LD50” value turned out to be 156 ± 28 µM and the “cytotoxicity” value is listed as “greatly increased”.
Take `O=c1c(-c2ccccc2)c(O)c2cc(/C=C/c3ccc(C(F)(F)F)cc3)cnc2n1OCc1ccccc1` [Compound 3]: the concentration for half-maximal inhibition (IC50) was above 250 µM against fowlpox virus resolvase and above 350 µM with vaccinia virus WR (setting [2]). For the same compound, in “Log P (hydrophobicity)”, the “Log P” value was found to be 6.85.

A word on the IC50: it is the concentration at which inhibition is half-maximal. One may read the Log P as the decadic logarithm of the partition coefficient of the neutral form, usually between octanol and water. Low readings indicate lower lipophilicity, high ones higher lipophilicity.

These data come from patent publication US20150094327A1, “COMPOSITIONS AND METHODS FOR […]” (priority 2012, published 2015).
